From US20110166223A1, “METHODS OF INHIBITING FGFR3 SIGNALING” (CEDARS-SINAI MEDICAL CENTER, priority 2008, published 2011)
“Also recorded” adds a separate entry of the source.

What was measured:
[1] = test system: FGF2/FGFR3-mediated extracellular matrix loss in RCS chondrocytes; experiment: [35S]sulfate labeling assay in RCS chondrocytes; type: cell-based, rat; conditions: FGF2 5 ng/ml, NF449 20 μM, 72 hours, FIG. 2b
Procedure: For Alcian blue staining, growing RCS cultures were treated with FGF2 (5 ng/ml) alone or in the presence of NF449 (20 μM) for 72 hours, fixed with 4% paraformaldehyde and stained for 30 minutes with Alcian blue. For quantification of the FGF2/FGFR3-mediated extracellular matrix loss, RCS chondrocytes were treated with FGF2 (5 ng/ml) and NF449 (20 μM) for 72 hours in the presence of 10 μCi/ml of [^35S]sulfate (Perkin Elmer, Boston, Mass.). Following the cultivation period, cells were harvested and the incorporated radioactivity was determined by liquid scintillation.
Apart from the growth arrest, aberrant FGFR3 signaling in chondrocytes leads to the loss of their extracellular matrix, rich in sulfated proteoglycans, due to inhibition of matrix synthesis as well as degradation of the existing matrix. The inventors therefore evaluated whether NF449 rescues the extracellular matrix loss induced by FGFR3 activation. […] Similar to previous findings, this matrix was lost after the 72-hours of FGF2 treatment. […] To further confirm this observation, cells were incubated with [^35S]sulfate for 72 hours to label the extracellular matrix and determined the effect of FGF2 and NF449 on the cell-bound radioactivity.

[2] = molecular target: T1, full-length FLAG-tagged K650E-FGFR3 (Homo sapiens, UniProt P22607, K650E); experiment: Cell-free K650E-FGFR3 kinase assay with STAT1 as substrate; type: biochemical; conditions: immunopurified from CHO cells; FIG. 6
T1 construct: using full-length FLAG-tagged K650E-FGFR3 that was expressed in CHO cells; made in house; host or cells: CHO cells (transient transfection, anti-FLAG immunoprecipitation)
T1 sequence (P22607 23-806 K650E): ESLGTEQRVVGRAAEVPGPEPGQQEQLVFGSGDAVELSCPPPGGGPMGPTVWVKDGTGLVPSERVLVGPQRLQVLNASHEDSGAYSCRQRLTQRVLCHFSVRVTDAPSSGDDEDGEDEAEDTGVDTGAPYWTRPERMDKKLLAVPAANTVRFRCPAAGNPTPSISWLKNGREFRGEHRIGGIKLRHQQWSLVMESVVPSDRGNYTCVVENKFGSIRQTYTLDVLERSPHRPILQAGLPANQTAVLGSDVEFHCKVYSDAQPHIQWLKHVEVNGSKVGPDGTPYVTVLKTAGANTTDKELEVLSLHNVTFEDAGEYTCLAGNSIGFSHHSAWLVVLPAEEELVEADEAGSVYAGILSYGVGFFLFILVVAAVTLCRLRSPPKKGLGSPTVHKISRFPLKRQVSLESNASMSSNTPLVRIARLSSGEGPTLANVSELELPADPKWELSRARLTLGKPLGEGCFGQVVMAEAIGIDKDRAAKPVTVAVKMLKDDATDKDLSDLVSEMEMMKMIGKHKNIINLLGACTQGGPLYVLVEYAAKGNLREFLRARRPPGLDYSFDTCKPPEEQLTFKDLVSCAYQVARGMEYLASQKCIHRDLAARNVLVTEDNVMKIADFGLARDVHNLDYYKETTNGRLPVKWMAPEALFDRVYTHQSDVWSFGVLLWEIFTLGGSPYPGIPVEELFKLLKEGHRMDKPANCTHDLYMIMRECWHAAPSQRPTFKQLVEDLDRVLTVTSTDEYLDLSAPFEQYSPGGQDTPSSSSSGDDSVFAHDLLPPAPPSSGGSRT
Procedure: FIG. 6, in accordance with an embodiment herein, depicts 4,4′,4″,4′″-[carbonyl-bis[imino-5,1,3-benzenetriyl bis-{carbonylimino}]]tetrakis-{benzene-1,3-disulfonic acid} inhibits K650E-FGFR3 in a kinase assay. Cell-free K650E-FGFR3 kinase assays were carried-out using full-length FLAG-tagged K650E-FGFR3 that was expressed in CHO cells, purified by immunoprecipitation with FLAG antibody and subjected to a kinase reaction with recombinant STAT1 as a substrate and 4,4′,4″,4′″-[carbonyl-bis[imino-5,1,3-benzenetriyl bis-{carbonylimino}]]tetrakis-{benzene-1,3-disulfonic acid} added to the kinase reaction. Cells transfected with plasmid encoding green fluorescent protein (GFP) serve as a negative control for the immunoprecipitation. […]
OPM2 and KMS11 cells were lysed in ice-cold immunoprecipitation buffer (50 mM Tris-HCl pH 7.4, 150 mM NaCl, 0.5% NP-40, 1 mM EDTA, 25 mM NaF) supplemented with proteinase inhibitors and 10 mM sodium orthovanadate. […] Western blotting signal was quantified by determining the integrated optical density (I.O.D.) of a given band using Scion Image software (Scion Corporation, Frederick, Mass.). […] FGFR3-mediated phosphorylation of STAT1 was detected by western blotting with P-STAT1^Y701 antibody (Cell Signaling). […]

## O=C(Nc1cc(C(=O)Nc2ccc(S(=O)(=O)O)cc2S(=O)(=O)O)cc(C(=O)Nc2ccc(S(=O)(=O)O)cc2S(=O)(=O)O)c1)Nc1cc(C(=O)Nc2ccc(S(=O)(=O)O)cc2S(=O)(=O)O)cc(C(=O)Nc2ccc(S(=O)(=O)O)cc2S(=O)(=O)O)c1 [NF449, 4,4′,4″,4′″-[carbonyl-bis[imino-5,1,3-benzenetriylbis-{carbonylimino}]]tetrakis-{benzene-1,3-disulfonic acid}]
[1]
  FGF2-mediated inhibition of [35S]sulfate incorporation (loss of sulfated proteoglycans): completely rescued
[1]; listed as 4,4′,4″,4′″-[carbonyl-bis[imino-5,1,3-benzenetriyl bis-{carbonylimino}]]tetrakis
  FGF2-mediated inhibition of [35S]sulfate incorporation (loss of sulfated proteoglycans): reversed
[2]
  effect on K650E-FGFR3 kinase activity (Y701 phosphorylation of STAT1): inhibitory effect; also recorded: inhibited K650E-FGFR3 kinase activity
